Measurements published in patent publication US20080188481A1 (priority 2002, published 2008).
pEC50: −log10 of the molar value.

These molecules were tested on HIV-1 single-round infectious reporter virus (assay: Single-round infectious HIV-1 luciferase reporter virus infection of HeLa CD4 cells (antiviral EC50)). Details: Human immunodeficiency virus 1, HeLa, 72 h, read-out: EC50 Group from Table 1.
Format: cell-based
Procedure: • Virus production—Human embryonic Kidney cell line, 293T, was propagated in Dulbecco's Modified Eagle Medium (Invitrogen, Carlsbad, Calif.) containing 10% fetal Bovine serum (FBS, Sigma, St. Louis, Mo.). • Virus infection—Human epithelial cell line, HeLa, expressing the HIV-1 receptor CD4 was propagated in Dulbecco's Modified Eagle Medium (Invitrogen, Carlsbad, Calif.) containing 10% fetal Bovine serum (FBS, Sigma, St. Louis, Mo.) and supplemented with 0.2 mg/mL Geneticin (Invitrogen, Carlsbad, Calif.). Virus-Single-round infectious reporter virus was produced by co-transfecting human embryonic Kidney 293 cells with an HIV-1 envelope DNA expression vector and a proviral cDNA containing an envelope deletion mutation and the luciferase reporter gene inserted in place of HIV-1 nef sequences (Chen et al, Ref. 41). Transfections were performed using lipofectAMINE PLUS reagent as described by the manufacturer (Invitrogen, Carlsbad, Calif.).
• 1. HeLa CD4 cells were plated in 96 well plates at a cell density of 1×10^4 cells per well in 100 μl Dulbecco's Modified Eagle Medium containing 10% fetal Bovine serum and incubated overnight. • 2. Compound was added in a 2 μl dimethylsulfoxide solution, so that the final assay concentration would be ≦10 μM. • 3. 100 μl of single-round infectious reporter virus in Dulbecco's Modified Eagle Medium was then added to the plated cells and compound at an approximate multiplicity of infection (MOI) of 0.01, resulting in a final volume of 200 μl per well. • 4. Virally-infected cells were incubated at 37 degrees Celsius, in a CO2 incubator, and harvested 72 h after infection. • 5. Viral infection was monitored by measuring luciferase expression from viral DNA in the infected cells using a luciferase reporter gene assay kit, as described by the manufacturer (Roche Molecular Biochemicals, Indianapolis, Ind.). Infected cell supernatants were removed and 50 μl of lysis buffer was added per well. After 15 minutes, 50 μl of freshly-reconstituted luciferase assay reagent was added per well. Luciferase activity was then quantified by measuring luminescence using a Wallac microbeta scintillation counter. • 6. The percent inhibition for each compound was calculated by quantifying the level of luciferase expression in cells infected in the presence of each compound as a percentage of that observed for cells infected in the absence of compound and subtracting such a determined value from 100. • 7. An EC50 provides a method for comparing the antiviral potency of the compounds of this invention. The effective concentration for fifty percent inhibition (EC50) was calculated with the Microsoft Excel Xlfit curve fitting software. For each compound, curves were generated from percent inhibition calculated at 10 different concentrations by using a four paramenter logistic model (model 205). Table 1 is the key for the data in Table 2.

| SMILES | pEC50 |
| --- | --- |
| COc1cnc(-n2cncn2)c2[nH]cc(C(=O)C(=O)N3CCC(=C(Br)c4ccccc4)CC3)c12 [Example 88] | > 6.00 |
| COc1cnc(-n2cnc(C)n2)c2[nH]cc(C(=O)C(=O)N3CCC(=C(c4ccccc4)c4nnc(C(C)C)o4)CC3)c12 [Example 81, 1-[4-(1-Phenyl-1-(5-isopropyl-1,3,4-oxadiazol-2-yl)-methylene)-piperidin-1-yl]-2-[4-methoxy-7-(3-methyl-1,2,4-triazol-1-yl)-6-azaindol-3-yl]-ethane-1,2-dione] | > 6.00 |
| COc1ccnc2[nH]cc(C(=O)C(=O)N3CCC(=C(F)c4ccccc4)CC3)c12 [Example 10] | > 6.00 |
| COc1cnc(-n2ccnn2)c2[nH]cc(C(=O)C(=O)N3CCC(=C(c4ccccc4)c4nnc(C(C)C)o4)CC3)c12 [Example 75, 1-[4-(1-Phenyl-1-(5-isopropyl-1,3,4-oxadiazol-2-yl)-methylene)-piperidin-1-yl]-2-[4-methoxy-7-(1,2,3-triazol-1-yl)-6-azaindol-3-yl]-ethane-1,2-dione] | > 6.00 |
| COc1ccccc1C(=C1CCN(C(=O)C(=O)c2c[nH]c3c(OC)ncc(OC)c23)CC1)c1ccccc1 [Example 65] | > 6.00 |
| COc1ncc(OC)c2c(C(=O)C(=O)N3CCC(=C(Br)c4ccccc4)CC3)c[nH]c12 [Example 48a, 1-[4-(1-Bromo-1-phenyl-methylene)-piperidin-1-yl]-2-(4,7-dimethoxy-6-azaindol-3-yl)-ethane-1,2-dione] | > 6.00 |
| COc1cnc(-n2cnc(C)n2)c2[nH]cc(C(=O)C(=O)N3CCC(=C(c4ccccc4)c4cccc(CO)c4)CC3)c12 [Example 84, 1-[4-(1-Phenyl-1-(3-hydroxymethylphenyl)-methylene)-piperidin-1-yl]-2-[4-methoxy-7-(3-methyl-1,2,4-triazol-1-yl)-6-azaindol-3-yl]-ethane-1,2-dione] | > 6.00 |
| COc1cnc(-n2cnc(C)n2)c2[nH]cc(C(=O)C(=O)N3CCC(=C(c4ccccc4)c4cnn(Cc5ccccc5)c4)CC3)c12 [Example 143, 1-[4-(1-Phenyl-1-(1-benzylpyrazol-4-yl)-methylene)-piperidin-1-yl]-2-(4-methoxy-7-(3-methyl-1,2,4-triazol-1-yl)-6-azaindol-3-yl)-ethane-1,2-dione] | > 6.00 |
| COc1ncc(OC)c2c(C(=O)C(=O)N3CCC(=C(c4ccccc4)c4ccc(SC)cc4)CC3)c[nH]c12 [Example 63] | > 6.00 |
| N#CC(=C1CCN(C(=O)C(=O)c2c[nH]c3c(-n4ccnn4)ncc(F)c23)CC1)c1ccccc1 [Example 129a, {1-[2-(4-Fluoro-7-[1,2,3]triazol-1-yl-1H-pyrrolo[2,3-c]pyridin-3-yl)-2-oxo-acetyl]-piperidin-4-ylidene}-phenyl-acetonitrile] | > 6.00 |
| COc1cnc(-n2cnc(C)n2)c2[nH]cc(C(=O)C(=O)N3CCC(=C(c4ccccc4)c4cc(F)cc(F)c4)CC3)c12 [Example 85, 1-[4-(1-Phenyl-1-(3,5-difluorophenyl)-methylene)-piperidin-1-yl]-2-[4-methoxy-7-(3-methyl-1,2,4-triazol-1-yl)-6-azaindol-3-yl]-ethane-1,2-dione] | > 6.00 |
| COc1cnc(-c2cnccn2)c2[nH]cc(C(=O)C(=O)N3CCC(=C(c4ccccc4)c4nccs4)CC3)c12 [Example 90] | > 6.00 |
| COCC#CC(=C1CCN(C(=O)C(=O)c2c[nH]c3c(OC)ncc(OC)c23)CC1)c1ccccc1 [Example 117, 1-[4-(1-Phenyl-1-(2-methoxymethylethyn-1-yl)-methylene)-piperidin-1-yl]-2-(4,7-dimethoxy-6-azaindol-3-yl)-ethane-1,2-dione] | > 6.00 |
| COc1ncc(OC)c2c(C(=O)C(=O)N3CCC(=C(c4ccccc4)c4cccc(SC)c4)CC3)c[nH]c12 [Example 68] | > 6.00 |
| N#CC(=C1CCN(C(=O)C(=O)c2c[nH]c3c(-n4cncn4)ncc(F)c23)CC1)c1ccccc1 [Example 110, {1-[2-(4-Fluoro-7-[1,2,4]triazol-1-yl-1H-pyrrolo[2,3-c]pyridin-3-yl)-2-oxo-acetyl]-piperidin-4-ylidene}-phenyl-acetonitrile] | > 6.00 |
| COc1ncc(OC)c2c(C(=O)C(=O)N3CCC(=C(c4ccccc4)c4nnco4)CC3)c[nH]c12 [Example 51, 1-[4-(1-Phenyl-1-(1,3,4-oxadiazol-2-yl)-methylene)-piperidin-1-yl]-2-(4,7-dimethoxy-6-azaindol-3-yl)-ethane-1,2-dione] | > 6.00 |
| O=C(C(=O)N1CCC(=C(Br)c2ccccc2)CC1)c1c[nH]c2c(Cl)ccnc12 [Example 107, 1-[4-(Bromo-phenyl-methylene)-piperidin-1-yl]-2-(7-chloro-1H-pyrrolo[3,2-b]pyridin-3-yl)-ethane-1,2-dione] | > 6.00 |
| COc1ncc(OC)c2c(C(=O)C(=O)N3CCC(=C(C#Cc4ccccc4)c4ccccc4)CC3)c[nH]c12 [Example 118, 1-[4-(1-Phenyl-1-(2-phenylethyn-1-yl)-methylene)-piperidin-1-yl]-2-(4,7-dimethoxy-6-azaindol-3-yl)-ethane-1,2-dione] | > 6.00 |
| COc1cnc(-n2cc(C)nn2)c2[nH]cc(C(=O)C(=O)N3CCC(=C(c4ccccc4)c4cc(C)n[nH]4)CC3)c12 [Example 137, 1-[4-(1-Phenyl-1-(3-methylpyrazol-5-yl)-methylene)-piperidin-1-yl]-2-(4-methoxy-7-(4-methyl-1,2,3-triazol-1-yl)-6-azaindol-3-yl)-ethane-1,2-dione] | > 6.00 |
| COc1ncc(OC)c2c(C(=O)C(=O)N3CCC(=C(c4ccccc4)c4cccc([N+](=O)[O-])c4)CC3)c[nH]c12 [Example 66] | > 6.00 |
| COc1cnc(-n2cnc(C)n2)c2[nH]cc(C(=O)C(=O)N3CCC(=C(c4ccccc4)c4nnc(C)o4)CC3)c12 [Example 80, 1-[4-(1-Phenyl-1-(5-methyl-1,3,4-oxadiazol-2-yl)-methylene)-piperidin-1-yl]-2-[4-methoxy-7-(3-methyl-1,2,4-triazol-1-yl)-6-azaindol-3-yl]-ethane-1,2-dione] | > 6.00 |
| N#CC(=C1CCN(C(=O)C(=O)c2c[nH]c3c(-c4nccs4)ccnc23)CC1)c1ccccc1 [Example 104, {1-[2-Oxo-2-(7-thiazol-2-yl-1H-pyrrolo[3,2-b]pyridin-3-yl)-acetyl]-piperidin-4-ylidene}-phenyl-acetonitrile] | > 6.00 |
| COc1cnc(-n2cnc(C)n2)c2[nH]cc(C(=O)C(=O)N3CCC(=C(c4ccccc4)c4nnc(-c5ccccc5)o4)CC3)c12 [Example 135, 1-[4-(1-Phenyl-1-(5-phenyl-1,3,4-oxadiazol-2-yl)-methylene)-piperidin-1-yl]-2-[4-methoxy-7-(3-methyl-1,2,4-triazol-1-yl)-6-azaindol-3-yl]-ethane-1,2-dione] | < 6.30 |
| COc1cnc(-n2cc(C)nn2)c2[nH]cc(C(=O)C(=O)N3CCC(=C(c4ccccc4)c4nnc(C)o4)CC3)c12 [Example 138, 1-[4-(1-Phenyl-1-(5-methyl-1,3,4-oxadiazol-2-yl)-methylene)-piperidin-1-yl]-2-(4-methoxy-7-(4-methyl-1,2,3-triazol-1-yl)-6-azaindol-3-yl)-ethane-1,2-dione] | > 6.00 |
| COc1cnc(-n2cnc(C)n2)c2[nH]cc(C(=O)C(=O)N3CCC(=C(c4ccccc4)c4nnco4)CC3)c12 [Example 131, 1-[4-(1-Phenyl-1-(1,3,4-oxadiazol-2-yl)-methylene)-piperidin-1-yl]-2-[4-methoxy-7-(3-methyl-1,2,4-triazol-1-yl)-6-azaindol-3-y]-ethane-1,2-dione] | > 6.00 |
| COc1cnc(-n2ccnn2)c2[nH]cc(C(=O)C(=O)N3CCC(=C(c4ccccc4)c4cnn(Cc5ccccc5)c4)CC3)c12 [Example 144, 1-[4-(1-Phenyl-1-(1-benzylpyrazol-4-yl)-methylene)-piperidin-1-yl]-2-(4-methoxy-7-(1,2,3-triazol-1-yl)-6-azaindol-3-yl)-ethane-1,2-dione] | > 6.00 |
| COc1ncc(OC)c2c(C(=O)C(=O)N3CCC(=C(c4ccccc4)c4ncco4)CC3)c[nH]c12 [Example 61] | > 6.00 |
| N#CC(=C1CCN(C(=O)C(=O)c2c[nH]c3c(-n4ccc(N)n4)ncc(F)c23)CC1)c1ccccc1 [Example 111, (1-{2-[7-(3-Amino-pyrazol-1-yl)-4-fluoro-1H-pyrrolo[2,3-c]pyridin-3-yl]-2-oxo-acetyl}-piperidin-4-ylidene)-phenyl-acetonitrile] | > 6.00 |
